Consider 40 compounds from ChEMBL document CHEMBL1148225, “Discovery and SAR of trisubstituted thiazolidinones as CCR4 antagonists” (Bioorg Med Chem Lett, 2004).

Each structure is given as a SMILES string. “And” between values parts separate entries of the source, which are not always exact repeats. Equal entries are not always repeated.

One assay has as its target T1, C-C chemokine receptor type 4 (Homo sapiens, UniProt P51679).
T1 sequence (P51679 whole entry): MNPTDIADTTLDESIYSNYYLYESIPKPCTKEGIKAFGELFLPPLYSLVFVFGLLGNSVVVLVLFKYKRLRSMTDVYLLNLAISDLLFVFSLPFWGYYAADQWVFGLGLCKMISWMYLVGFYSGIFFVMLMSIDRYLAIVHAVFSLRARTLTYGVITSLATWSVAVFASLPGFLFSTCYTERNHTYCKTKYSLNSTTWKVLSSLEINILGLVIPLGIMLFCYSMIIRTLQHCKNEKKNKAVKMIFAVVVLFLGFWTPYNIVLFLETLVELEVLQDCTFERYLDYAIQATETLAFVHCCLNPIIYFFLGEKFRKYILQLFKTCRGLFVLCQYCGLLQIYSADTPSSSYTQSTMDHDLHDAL
Kind of assay: Inhibition of [125I]MDC binding to recombinant human C-C chemokine receptor type 4 (CCR4) expressed in murine pre-B cells. It is filed as cell-based.
Take `CC(C)(C)CCNC(=O)C[C@H]1S[C@H](c2ccc(Cl)cc2Cl)N(CC(=O)NCCCN2CCOCC2)C1=O`: the IC50 stood at 21 µM.

On to `O=C(CC1SC(c2ccc(Cl)cc2)N(CC(=O)NCCCN2CCOCC2)C1=O)NCc1cccc2ccccc12` (stereo unspecified), for which the IC50 was 2.4 µM and 0.83 µM.

As to `O=C(C[C@H]1S[C@@H](c2ccc(Cl)cc2)N(CC(=O)NCCCN2CCOCC2)C1=O)NCc1cccc2ccccc12`, the half-maximal inhibitory concentration (IC50) is roughly 6 µM.

Turning to `O=C(C[C@H]1S[C@H](c2ccc(Cl)cc2Cl)N(CC(=O)NCCCN2CCOCC2)C1=O)NCc1cccc(C(F)(F)F)c1F`, the IC50 amounted to 2.5 µM.

With `C[C@@H](NC(=O)C[C@H]1S[C@H](c2ccc(Cl)cc2Cl)N(CC(=O)NCCCN2CCCCC2)C1=O)c1cccc2ccccc12`, the IC50 is 0.11 µM.

`O=C(C[C@H]1S[C@H](c2cccc(C(F)(F)F)c2)N(CC(=O)NCCCN2CCOCC2)C1=O)NCc1cccc2ccccc12`: the IC50 came to 12 µM.

In the case of `CN(C)CCCNC(=O)CN1C(=O)[C@@H](CC(=O)NCc2cccc3ccccc23)S[C@@H]1c1ccc(Cl)cc1Cl`, the IC50 was found to be 0.36 µM.

Regarding `COc1ccc(CNC(=O)C[C@H]2S[C@H](c3ccc(Cl)cc3Cl)N(CC(=O)NCCCN3CCOCC3)C2=O)c(OC)c1`, the IC50 was determined as 32 µM.

On to `Cc1cccc(CNC(=O)C[C@H]2S[C@H](c3ccc(Cl)cc3Cl)N(CC(=O)NCCCN3CCOCC3)C2=O)c1C`, for which the IC50 was 0.44 µM.

Turning to `CN1CCN(CCCNC(=O)CN2C(=O)[C@@H](CC(=O)NCc3cccc4ccccc34)S[C@@H]2c2ccc(Cl)cc2Cl)CC1`, the IC50 is 0.57 µM.

On to `O=C(C[C@H]1S[C@H](c2c(Cl)cccc2Cl)N(CC(=O)NCCCN2CCOCC2)C1=O)NCc1cccc2ccccc12`, for which the IC50 turned out to be 8 µM.

`O=C(C[C@H]1S[C@H](c2ccc(Cl)cc2Cl)N(CC(=O)NCCCN2CCOCC2)C1=O)NCc1cccs1`: the IC50 worked out at 11 µM.

`O=C(C[C@H]1S[C@H](c2ccc(Cl)cc2Cl)N(CC(=O)NCCCN2CCOCC2)C1=O)NCc1csc2ccccc12`: the IC50 amounted to 0.34 µM.

With `O=C(C[C@H]1S[C@H](c2cccc(Cl)c2Cl)N(CC(=O)NCCCN2CCOCC2)C1=O)NCc1cccc2ccccc12`, the IC50 was determined as 18 µM.

On to `O=C(C[C@H]1S[C@H](CCc2ccccc2)N(CC(=O)NCCCN2CCOCC2)C1=O)NCc1cccc2ccccc12`, for which the IC50 was found to be 100 µM.

Take `O=C(C[C@H]1S[C@H](c2ccc(Cl)cc2Cl)N(CC(=O)NCCCN2CCOCC2)C1=O)NCc1cccc2ccccc12`: the IC50 turned out to be 0.69 µM.

With `NCCNC(=O)CCN1C(=O)[C@@H](CC(=O)NCc2cccc3ccccc23)S[C@@H]1c1ccc(Cl)cc1Cl`, the IC50 worked out at 9 µM.

As for `O=C(CN1C(=O)[C@@H](CC(=O)N[C@@H]2CCc3ccccc32)S[C@@H]1c1ccc(Cl)cc1Cl)NCCCN1CCOCC1`, the concentration for half-maximal inhibition (IC50) was 2.9 µM.

As for `O=C(C[C@H]1S[C@H](c2ccccc2Cl)N(CC(=O)NCCCN2CCOCC2)C1=O)NCc1cccc2ccccc12`, the IC50 came to 11 µM.

Take `CN1CCN(C(=O)CN2C(=O)[C@@H](CC(=O)NCc3cccc4ccccc34)S[C@@H]2c2ccc(Cl)cc2Cl)CC1`: the half-maximal inhibitory concentration (IC50) was 20 µM.

For `O=C(C[C@H]1S[C@H](c2ccc(Cl)cc2Cl)N(CCCCN2CCOCC2)C1=O)NCc1cccc2ccccc12`, the 50% inhibitory concentration (IC50) amounted to 18 µM.

Take `COc1ccc(CNC(=O)C[C@H]2S[C@H](c3ccc(Cl)cc3Cl)N(CC(=O)NCCCN3CCOCC3)C2=O)c(OC)c1OC`: the half-maximal inhibitory concentration (IC50) amounted to 11 µM.

On to `C[C@H](NC(=O)C[C@H]1S[C@H](c2ccc(Cl)cc2Cl)N(CC(=O)NCCCN2CCOCC2)C1=O)c1cccc2ccccc12`, for which the IC50 was 8 µM.

With `Cc1ccc([C@H]2S[C@H](CC(=O)NCc3cccc4ccccc34)C(=O)N2CC(=O)NCCCN2CCOCC2)c(C)c1`, the IC50 is 11 µM.

As for `C[C@@H](NC(=O)C[C@H]1S[C@H](c2ccc(Cl)cc2Cl)N(CC(=O)NCCCN2CCOCC2)C1=O)c1ccccc1` (stereo in doubt; 89), the IC50 came to 0.25 µM.

For `COc1ccc([C@H]2S[C@H](CC(=O)NCc3cccc4ccccc34)C(=O)N2CC(=O)NCCCN2CCOCC2)c(OC)c1`, the IC50 worked out at 33 µM.

For `O=C(C[C@H]1S[C@H](c2ccc(F)cc2)N(CC(=O)NCCCN2CCOCC2)C1=O)NCc1cccc2ccccc12`, the 50% inhibitory concentration (IC50) was found to be 4 µM.

Consider `O=C(C[C@H]1S[C@H](c2ccc(Cl)cc2Cl)N(CC(=O)NCCCN2CCOCC2)C1=O)NCc1ccc(Cl)cc1Cl` (stereo in doubt; 72), for which the IC50 was found to be 3 µM.

As to `O=C(C[C@H]1S[C@H](c2ccc(Cl)cc2Cl)N(CC(=O)NCCN2CCOCC2)C1=O)NCc1cccc2ccccc12`, the IC50 was found to be 3.5 µM.

`O=C(C[C@H]1S[C@H](c2ccc(F)cc2F)N(CC(=O)NCCCN2CCOCC2)C1=O)NCc1cccc2ccccc12`: the IC50 turned out to be 1 µM.

Take `CC(C)CCNC(=O)C[C@H]1S[C@H](c2ccc(Cl)cc2Cl)N(CC(=O)NCCCN2CCOCC2)C1=O`: the IC50 was 19 µM.

As to `O=C(C[C@H]1S[C@H](c2ccc(Cl)cc2Cl)N(CC(=O)N2CCC(N3CCCCC3)CC2)C1=O)NCc1cccc2ccccc12`, the IC50 is 0.33 µM.

Turning to `Cc1ccc(CNC(=O)C[C@H]2S[C@H](c3ccc(Cl)cc3Cl)N(CC(=O)NCCCN3CCOCC3)C2=O)n1C`, the IC50 turned out to be 2.5 µM.

With `O=C(C[C@H]1S[C@H](c2ccc(Cl)cc2Cl)N(CC(=O)NCCCN2CCOCC2)C1=O)NCc1cccc(C(F)(F)F)c1`, the IC50 was 1 µM.

On to `O=C(C[C@H]1S[C@H](c2ccncc2)N(CC(=O)NCCCN2CCOCC2)C1=O)NCc1cccc2ccccc12`, for which the IC50 turned out to be 34 µM.

In the case of `O=C(C[C@H]1S[C@H](c2ccc(Cl)cc2Cl)N(CC(=O)NCCCN2CCOCC2)C1=O)NCCc1ccc(Cl)c(Cl)c1`, the IC50 amounted to 13 µM.

For `O=C(C[C@H]1S[C@H](c2ccc(Cl)cc2Cl)N(CC(=O)NCCCN2CCOCC2)C1=O)NCc1cc(Cl)cc(Cl)c1`, the IC50 came to 1.5 µM.

Turning to `O=C(C[C@H]1S[C@H](c2ccc(Cl)cc2Cl)N(CC(=O)NCCCCN2CCOCC2)C1=O)NCc1cccc2ccccc12`, the IC50 amounted to 0.38 µM.

For `O=C(C[C@H]1S[C@H](c2ccc(Cl)cc2Cl)N(CC(=O)NCCCN2CCOCC2)C1=O)NCc1cc(Cl)ccc1Cl`, the half-inhibitory concentration (IC50) came out at 4 µM.

In another assay the target is T2, C-C chemokine receptor type 4 (Homo sapiens) (UniProt P51679).
T2 sequence (whole entry): T1 sequence (P51679 whole entry)
Kind of assay: Dose required to inhibit TARC-stimulated chemotaxis in CCR4+ Th2 cell lines derived from primary human T-cells. It is filed as functional, cell-based.
The compound `C[C@@H](NC(=O)C[C@H]1S[C@H](c2ccc(Cl)cc2Cl)N(CC(=O)NCCCN2CCCCC2)C1=O)c1cccc2ccccc12` yielded an ED50 of 0.3 µM.

In the next assay the target is T1, C-C chemokine receptor type 4. Nature of the assay: Inhibitory activity against [125I]MDC binding to human Chemokine receptor type 4 expressed in murine pre-B cells. Format: cell-based.
In the case of `O=C(C[C@H]1S[C@H](c2ccc(C(F)(F)F)cc2C(F)(F)F)N(CC(=O)NCCCN2CCOCC2)C1=O)NCc1cccc2ccccc12`, the IC50 is greater than 100 µM.
